In brackets after ≈: the same amount, converted by molar mass. Like-named read-outs stand apart in the source and are kept apart here.
Legend:
C. albicans 1040 = assay: In vitro antimycotic activity, macromethod of scalar broth dilutions (YNB); type: cell-based, Candida albicans
Description: (§1) The determination of the activity inhibiting the growth of mycetes was evaluated by the macromethod of scalar brothdilutions in geometrical progression (M.R. McGinnis and M.G. Rinaldi, "Antifungal drugs: mechanisms of action, drug resistance, susceptibility testing and assay of activity in biological fluids", in Antibiotic in Laboratory Medicine, Ed. V. Lorian, Baltimora 1991).
(§2) As culture media Yeast Nitrogen Base broth (YNB) and Sabouraud Dextrose broth (SDB) were used for yeasts and moulds, respectively.
(§3) The results obtained in SDB (after incubation at 28°C for 7 days) were expressed as minimum inhibiting concentrations (MIC) the growth of mycetes, while those obtained in YNB (after incubation at 35°C for 48 hours) were expressed as concentrations able to inhibit at 50% (IC50) the growth of the yeast.
(§4) As reference compounds Fluconazole, Itraconazole and Genaconazole were used.

C. neoformans = assay: as above; type: cell-based; conditions: Cryptococcus neoformans
Description: as §1, §2, §3, §4

T.mentagrophytes = assay: In vitro antimycotic activity, macromethod of scalar broth dilutions (SDB); type: cell-based, Trychophyton mentagrophytes; conditions: Trichophyton mentagrophytes, 168 h
Description: as §1, §2, §3, §4

A. fumigatus = assay: as above; type: cell-based; conditions: Aspergillus fumigatus, 168 h
Description: as §1, §2, §3, §4

Candida albicans 1040 = assay: In vivo antimycotic activity in mice experimentally infected by C. albicans, oral route; parameters: species or system Charles River white mice (CD1 strain); conditions: for % percentage of survival after day 3 / % percentage of survival after day 6: mice infected by C. albicans, dose 25 mg/kg/os; for PD50 at 8th day / PD50 at 14th day: oral route, probits analysis; for PD50 at 8th day: 8 days from the infection; for PD50 at 14th day: 14 days from the infection; for antimycotic activity in comparison with the compounds of formula II, statement in words: test not named, only in vivo data are printed for R1 and R2
Description: Charles River white mice (CD1 strain) weighing from 23 to 25 g, normo-feeded with standard diet and water ad libitum were used.
A suspension (0.2 ml containing 2.5x10^7 cells/ml) of Candida albicans 1040 in physiologic solution was injected to each animal by venous route. Immediately after the infection and after 4, 24 and 48 hours, the animals received by oral route (in arabic gum at 2%) doses increasing in a geometrical progression of the compound to be tested. The infected group was used as control.
The observation of the mortality of the mice was prolonged up to 14 days. From the number of survived animals for each concentration the average protective dose (DP50) was calculated by probits analysis (L.Lison - "Statistica applicata alla biologia sperimentale. La programmazione dell'esperimento e l'analisi dei risultati" - Casa Editrice Ambrosiana, 1961).
Compounds R1 and R2 were used as comparative compounds.
Fluconazole and Itraconazole were used as reference compounds.

C. krusei (2) = assay: In vitro antimycotic activity, strain panel (Table 2); type: cell-based, Candida krusei; conditions: Pichia kudriavzevii
Description: as §1, §2, §3, §4
(§5) Note to the table: MIC expressed as µg/ml Within brackets the number of tested strains Table 3

C. glabrata (2) = assay: as above; type: cell-based, Candida glabrata; conditions: Nakaseomyces glabratus; C. glabrata, 2 strains; single value or range printed under head MIC50 MIC90; read-out: MIC
Description: as §1, §2, §3, §4, §5

B. capitatus (1) = assay: as above; type: cell-based; conditions: Magnusiomyces capitatus; B. capitatus, 1 strain; single value under head MIC50 MIC90; read-out: MIC
Description: as §1, §2, §3, §4, §5

C. albicans (7) = assay: as above; type: cell-based; conditions: Candida albicans, C. albicans, 7 strains; for MIC50: read-out: MIC50; for MIC90: read-out: MIC90
Description: as §1, §2, §3, §4, §5

C. neoformans (4) = assay: as above; type: cell-based; conditions: Cryptococcus neoformans, C. neoformans, 4 strains; for MIC50: read-out: MIC50; for MIC90: read-out: MIC90
Description: as §1, §2, §3, §4, §5

[1] = system: C. spp * (5) (C. parapsilosis, lusitaniae, kefyr); assay: as above; type: cell-based; conditions: Lodderomyces parapsilosis, C. parapsilosis, lusitaniae, kefyr, 5 strains; for MIC50: read-out: MIC50; for MIC90: read-out: MIC90
Description: as §1, §2, §3, §4, §5

C. tropicalis (2) = assay: as above; type: cell-based; conditions: Candida tropicalis; C. tropicalis, 2 strains; single value or range printed under head MIC50 MIC90; read-out: MIC
Description: as §1, §2, §3, §4, §5

Trichosporon sp. (1) = assay: as above; type: cell-based; conditions: Trichosporon sp., 1 strain; single value under head MIC50 MIC90; read-out: MIC
Description: as §1, §2, §3, §4, §5

Fusarium sp = assay: In vitro antimycotic activity against recently isolated Fusarium strains (Tables 2 and 3); type: cell-based; conditions: Fusarium
Description: as §1, §2, §3, §4, §5

[2] = Candida albicans, C. albicans 1040, YNB, incubation at 35°C for 48 hours, read-out: IC50
[3] = C. neoformans, YNB, incubation at 35°C for 48 hours, read-out: IC50
[4] = T.mentagrophytes, SDB, incubation at 28°C for 7 days, read-out: MIC
[5] = A. fumigatus, SDB, incubation at 28°C for 7 days, read-out: MIC

| Compound | IC50 (C. albicans 1040; [2]) | IC50 (C. neoformans; [3]) | MIC (T.mentagrophytes; [4]) | MIC (A. fumigatus; [5]) | PD50 at 8th day (Candida albicans 1040) | PD50 at 14th day (Candida albicans 1040) | also measured |
| --- | --- | --- | --- | --- | --- | --- | --- |
| CCC(OC(F)(F)C(F)F)C(C)C(O)(Cn1cncn1)c1ccc(Cl)cc1Cl (racemic) [Compound 2, (±)-1-(1H-1,2,4-triazolyl)-2-hydroxy-2-(2,4-dichlorophenyl)-3-methyl-4-(1,1,2,2-tetrafluoroethoxy)hexane] | 0.0312 µg/mL (≈ 0.0702 µM) | 0.125 µg/mL (≈ 0.281 µM) | 2 µg/mL (≈ 4.5 µM) | 4 µg/mL (≈ 9 µM) | – | – | % percentage of survival after day 3 (Candida albicans 1040): 100%; % percentage of survival after day 6 (Candida albicans 1040): 100% |
| CC(C)(COC(F)(F)C(F)F)C(O)(Cn1cncn1)c1ccc(Cl)cc1 (racemic) [Compound 3, (±)-1-(1H-1,2,4-triazolyl)-2-hydroxy-2-(4-chlorophenyl)-3,3-dimethyl-4-(1,1,2,2-tetrafluoroethoxy)butane] | 0.0625 µg/mL (≈ 0.158 µM) | 0.0625 µg/mL (≈ 0.158 µM) | 1 µg/mL (≈ 2.53 µM) | > 128 µg/mL | 0.49 mg/kg/os | 1.3 mg/kg/os | MIC (C. krusei (2)): 0.03 to 0.5 µg/mL (≈ 0.0758 to 1.26 µM); MIC (C. glabrata (2)): 0.5 to 2 µg/mL (≈ 1.26 to 5.05 µM); MIC (B. capitatus (1)): 0.06 µg/mL (≈ 0.152 µM); MIC50 (C. albicans (7)): ≤ 0.03 µg/mL; MIC90 (C. albicans (7)): 2 µg/mL (≈ 5.05 µM); MIC50 (C. neoformans (4)): ≤ 0.03 µg/mL; MIC90 (C. neoformans (4)): 0.5 µg/mL (≈ 1.26 µM); MIC50 [1]: ≤ 0.03 µg/mL; MIC90 [1]: ≤ 0.03 µg/mL; MIC (C. tropicalis (2)): 0.5 µg/mL (≈ 1.26 µM); MIC (Trichosporon sp. (1)): 0.12 µg/mL (≈ 0.303 µM); MIC (Fusarium sp): 16 to 64 µg/mL (≈ 40.4 to 162 µM); % percentage of survival after day 3 (Candida albicans 1040): 100%; % percentage of survival after day 6 (Candida albicans 1040): 100% |
| CC(COC(F)(F)C(F)F)C(O)(Cn1cncn1)c1ccc(Cl)cc1 (racemic) [Compound 4, (±)-1-(1H-1,2,4-triazolyl)-2-hydroxy-2-(4-chlorophenyl)-3-methyl-4-(1,1,2,2-tetrafluoroethoxy)butane] | 0.0312 µg/mL (≈ 0.0817 µM) | 0.5 µg/mL (≈ 1.31 µM) | 4 µg/mL (≈ 10.5 µM) | > 128 µg/mL | 0.31 mg/kg/os | 1.29 mg/kg/os | – |
| CC(COC(F)(F)C(F)F)C(O)(Cn1cncn1)c1ccc(F)cc1F (racemic) [Compound 6, (±)-1-(1H-1,2,4-triazolyl)-2-hydroxy-2-(2.4-difluorophenyl)-3-methyl-4-(1,1,2,2-tetrafluoroethoxy)butane] | 0.0312 µg/mL (≈ 0.0814 µM) | 0.0625 µg/mL (≈ 0.163 µM) | 0.5 µg/mL (≈ 1.3 µM) | 16 µg/mL (≈ 41.7 µM) | 0.42 mg/kg/os | 1.10 mg/kg/os | – |
| CCC(COC(F)(F)C(F)F)C(O)(Cn1cncn1)c1ccc(F)cc1F (racemic) [Compound 7, (±)-1-(1H-1,2,4-triazolyl)-2-hydroxy-2-(2,4-difluorophenyl)-3-ethyl-4-(1,1,2,2-tetrafluoroethoxy)butane nitrate] | – | – | – | – | 1.5 mg/kg/os | 2.19 mg/kg/os | IC50 (C. albicans 1040; Candida albicans, 1040, 48 h): 0.0312 µg/mL; IC50 (C. neoformans; 48 h): 0.125 µg/mL; MIC (T.mentagrophytes): 0.5 µg/mL; MIC (A. fumigatus): 16 µg/mL |
| CC(C)(COC(F)(F)C(F)F)C(O)(Cn1cncn1)c1ccc(Cl)cc1Cl (racemic) [Compound 8, (±)-1-(1H-1,2,4-triazolyl)-2-hydroxy-2-(2,4-dichlorophenyl)-3,3-dimethyl-4-(1,1,2,2-tetrafluoroethoxy)butane] | 0.0312 µg/mL (≈ 0.0725 µM) | 0.0156 µg/mL (≈ 0.0363 µM) | 0.25 µg/mL (≈ 0.581 µM) | > 4 µg/mL | – | – | – |
| CC(C)(COC(F)(F)C(F)C(F)(F)F)C(O)(Cn1cncn1)c1ccc(F)cc1F (racemic) [Compound 9] | 0.0156 µg/mL (≈ 0.0349 µM) | 0.125 µg/mL (≈ 0.279 µM) | 2 µg/mL (≈ 4.47 µM) | > 128 µg/mL | 0.89 mg/kg/os | 1.57 mg/kg/os | – |
| CC(C)(COCC(F)(F)C(F)F)C(O)(Cn1cncn1)c1ccc(F)cc1F (racemic) [Compound 10, (±)-1-(1H-1,2,4-triazolyl)-2-hydroxy-2-(2,4-difluorophenyl)-3,3-dimethyl-4-(2,2,3,3-tetrafluoropropoxy)butane] | 0.0156 µg/mL (≈ 0.0379 µM) | 0.0625 µg/mL (≈ 0.152 µM) | 0.5 µg/mL (≈ 1.22 µM) | 8 µg/mL (≈ 19.4 µM) | – | – | – |
| CC(C)(COC(F)(F)F)C(O)(Cn1cncn1)c1ccc(F)cc1F (racemic) [Compound 12, (±)-1-(1H-1,2,4-triazolyl)-2-hydroxy-2-(2,4-difluorophenyl)-3,3-dimethyl-4-trifluoromethoxy-butane] | 0.0156 µg/mL (≈ 0.0427 µM) | 0.0156 µg/mL (≈ 0.0427 µM) | 0.125 µg/mL (≈ 0.342 µM) | 4 µg/mL (≈ 10.9 µM) | 1.09 mg/kg/os | 1.39 mg/kg/os | – |
| OC(Cn1cncn1)(Cn1cncn1)c1ccc(F)cc1F [Fluconazole, reference compound] | 0.5 µg/mL (≈ 1.63 µM) | 2 µg/mL (≈ 6.53 µM) | 16 µg/mL (≈ 52.2 µM) | – | 0.125 mg/kg/os | 0.61 mg/kg/os | MIC (A. fumigatus): > 128 µg/mL; MIC (B. capitatus (1)): 4 µg/mL (≈ 13.1 µM); MIC50 (C. albicans (7)): 4 µg/mL (≈ 13.1 µM); MIC90 (C. albicans (7)): 32 µg/mL (≈ 104 µM); MIC50 (C. neoformans (4)): 1 µg/mL (≈ 3.27 µM); MIC90 (C. neoformans (4)): 32 µg/mL (≈ 104 µM); MIC50 [1]: 1 µg/mL (≈ 3.27 µM); MIC90 [1]: 2 µg/mL (≈ 6.53 µM); MIC (C. tropicalis (2)): 4 to 16 µg/mL (≈ 13.1 to 52.2 µM); MIC (Trichosporon sp. (1)): 32 µg/mL (≈ 104 µM) |
| (±)-1-(1H-1,2,4-triazolyl)-2-hydroxy-2-(2,4-difluorophenyl)-3,3-dimethyl-4-ethoxy-butane [Compound R1, reference compound] | – | – | – | – | >4 mg/kg/os | >4 mg/kg/os | antimycotic activity in comparison with the compounds of formula II, statement in words (Candida albicans 1040): substantially inactive |
| (±)-1-(1H-1,2,4-triazolyl)-2-hydroxy-2-(2,4-difluorophenyl)-3-(2,2,3,3-tetrafluoropropoxy)butane [Compound R2, reference compound] | – | – | – | – | >4 mg/kg/os | >4 mg/kg/os | antimycotic activity in comparison with the compounds of formula II, statement in words (Candida albicans 1040): substantially inactive |

From patent publication EP0819124B1, “AZOLE COMPOUNDS WITH ANTIMYCOTIC ACTIVITY FOR HUMAN AND VETERINARY USE” (ZAMBON GROUP S.p.A., priority 1995, dated 1996)
